Experimental data: patent publication US20210079358A1, “ASSEMBLOID - 3D MIMETIC TISSUE STRUCTURE BASED ON PATIENT- DERIVED MULTIPLE CELL TYPES AND METHOD OF MANUFACTURING THE SAME” (POSTECH Research and Business Development Foundation, priority 2019, published 2021)
Entries after “also recorded” stand apart in the source; their conditions may differ.

How the values were obtained:
[1] = test system: three-layered miniature bladders; test: Cell proliferation in three-layered miniature bladders under Hh pathway manipulation; format: cell-based, mouse; conditions: 50 μM Vismodegib or 100 nM SAG vs DMSO, 7 days
Method: (§1) To generate normal bladder organoids with stroma, normal bladder organoids cultured for a long time (>6 months) were mixed with mouse embryonic fibroblasts (MEFs) and endothelial cells (HULEC, ATCC) at 3.75×10^4 cells/μL and 5×10^3 cells/μL, respectively, along with 3 to 4 μL of Matrigel. Before additional analysis, these bladder organoids with stroma were cultured in an organoid medium in a spinning bioreactor for 7 days. The 12-well version of the spinning bioreactor was manufactured by 3D printing according to the method described in Qian, X. et al. Brain-Region-Specific Organoids Using Mini-bioreactors for Modeling ZIKV Exposure. Cell 165, 1238-1254, doi:10.1016/j.cell. 2016.04.032 (2016). In brief, individual components such as a plate cover (Project MJP 2500, 3D Systems, USA), a rotating shaft (Single Plus, Cubicon, Korea), a fixed rod (Single Plus, Cubicon, Korea) and a gear (Single Plus, Cubicon, Korea) were printed using a 3D printer in a stackable version, and the components were assembled to manufacture a spinning bioreactor. […]
(§2) Normal bladder organoids were treated with 50 μM Vismodegib (Abmole), 100 nM SAG (Millipore) or DMSO and cultured in a spinning bioreactor for 7 days. […] Capase-3/7-stained cells in the bladder tumor organoids were counted based on green fluorescence signals, and dose-response curves were generated using GraphPad Prism ver.6. […]

[2] = test system: reconstituted bladder organoids with stroma; test: Cell proliferation in reconstituted bladder organoids with stroma under Hh pathway manipulation; format: cell-based, mouse; conditions: 50 μM Vismodegib or 100 nM SAG vs DMSO, 7 days
Method: as §1, §2

[3] = test system: patient-derived bladder tumor organoids; test: Growth of patient-derived bladder tumor organoids with or without tumor stroma treated with Hh or Bmp agonist; format: cell-based, human; conditions: 300 nM SAG, 7 days
Method: Tumor tissues obtained from patients were washed with DPBS, and then washed twice with DMEM supplemented with 10% FBS. The washed tumors were minced and incubated in DMEM containing 10% FBS and collagenase I and II (20 mg/mL each) at 37° C. for 1 hour and ground for 5 minutes every 30 minutes. The isolated tissues were spun down at 1,500 rpm for 5 minutes, resuspended in ACK lysis buffer, and then incubated for 5 minutes at room temperature. Dissociated clusters were washed with DMEM containing 10% FBS and filtered through a 100 μm cell strainer. The dissociated cell clusters were spun down, resuspended in Matrigel (Growth Factor reduced) and plated in the middle of one well of a 6-well plate. The plated drop was solidified in an incubator at 37° C. for 15 minutes, and a 2.5 mL organoid medium [advanced DMEM/F-12 supplemented with 10 mM HEPES (pH 7.4), 10 mM nicotinamide, 1 mM N-acetyl-L-cysteine, GlutaMAX, 1% penicillin/streptomycin, 50 ng/mL mouse EGF, 0.5×B-27, 1 mM A8301 and 10 mM Y-27632] was added to the well. The medium was replaced once every 2 to 3 days. For passaging, 1 mg/mL collagenase/dispase was added to the medium, followed by incubation for 1 hour at 37° C. to digest the Matrigel. Subsequently, organoids were centrifuged at 1,500 rpm for 3 minutes, washed with PBS, and then spun down. Then, 0.05% trypsin-EDTA (Welgene) was added, organoids were incubated at 37° C. for 5 minutes, followed by mechanical grinding into small cells by pipetting. The organoids were passaged in a 1:3 or 1:4 ratio every 1 to 2 weeks.
To generate patient-derived tumor organoids with stroma, human tumor organoids were cultured for 10 days, and mixed with stromal components containing patient-derived CAFs and HULECs at concentrations of 5×10^4 cells/μL and 4×10^3 cells/μL, respectively, in Matrigel. And then, 5 μL drops of tumor organoids with stroma were cultured in an organoid medium in a spinning bioreactor for 7 days. […]

[4] = test system: 3D bioprinted patient-derived bladder tumor organoids; test: Tumor growth of 3D bioprinted patient-derived bladder tumor organoids treated with SAG or FK506; format: cell-based, human
Method: Tumor cells derived from patient-derived bladder tumor organoids were embedded in 40 μL Matrigel at a density of 5×10^5 cells/mL, and cultured in an organoid culture medium for 10 days. To prepare a bio-ink mixture for the reconstitution of tumor organoids with stroma by 3D bioprinting, 6 wells containing the embedded tumor organoids were treated with 0.5 mg/mL of a collagenase/dispase solution at 37° C. for 30 minutes, washed and centrifuged. The collected organoids were resuspended in 1 mL Matrigel (Growth Factor Reduced) containing patient-derived CAFs and HULECs at 4×10^7 cells/mL and 4×10^6 cells/mL, respectively. The reconstituted bio-ink was put into a sterilized 10 mL syringe with a 20-gauge needle, and stored on ice for less than 5 minutes before printing. A jet-type 3D printer (in vivo, Rokit, Korea) was used to reconstitute tumor organoids with stroma as described above. A G-code based script was written by Creator K software (Rokit, Korea) to print a 5×6 array of 10 μL drops. Each drop was dispensed on a parafilm at 8-mm intervals by extrusion. […]

[5] = test system: BBN-induced mouse bladder tumor organoids; test: Growth of BBN-induced mouse bladder tumor organoids treated with SAG or FK506; format: cell-based; conditions: reconstituted mouse tumor organoids with stroma
[6] = test system: 3D bioprinted patient-derived bladder tumor organoids; test: Tumor cell apoptosis (caspase3) in 3D bioprinted patient-derived bladder tumor organoids treated with cisplatin; format: cell-based, human; conditions: luminal and basal tumor-derived printed tumor organoids
Method: Normal bladder organoids were treated with 50 μM Vismodegib (Abmole), 100 nM SAG (Millipore) or DMSO and cultured in a spinning bioreactor for 7 days. Bladder tumor organoids were treated with 300 nM SAG, 5 μM FK506 (Cayman Chemical) or DMSO, and cultured in a spinning bioreactor for 7 days. Human bladder tumor organoids were cultured in an organoid medium for 7 days in a spinning bioreactor before treatment with chemotherapeutic drugs. Subsequently, tumor organoids were cultured for 48 hours in the presence of cisplatin (0, 0.2, 0.5, 1, 2, 5, 10, 50 and 100 μm, Sigma), gemcitabine (0, 0.2, 0.5, 1, 2, 5, 10, 50 and 100 μM, Sigma) or mitomycin C (0, 0.2, 0.5, 1, 2, 5, 10, 50 and 100 μM, Sigma). To produce dose-response curves for the three chemotherapeutic drugs, cell viability was assayed using a CellEvent™ Caspase-3/7 Green Detection Reagent (Thermo Fisher) according to the manufacturer's instructions. Forty-eight hours after treatment with cell therapeutic agent, bladder tumor organoids were fixed in 4% PFA at 4° C. for 15 minutes, washed with PBS three times, cultured in 30% sucrose overnight, and embedded in an OCT compound. Capase-3/7-stained cells in the bladder tumor organoids were counted based on green fluorescence signals, and dose-response curves were generated using GraphPad Prism ver.6. […]

Structure (SMILES)	proliferation of epithelial cells and stromal cells [1]	proliferation of epithelial cells and stromal cells [2]	growth of reconstituted tumor organoids of basal subtypes ([3]; basal P-2 and P-3, in the presence of tumor stroma)	response of basal subtype tumor organoids ([3]; basal subtype, without tumor stroma)	response of reconstituted luminal tumor organoids ([3]; reconstituted luminal tumor organoids)	tumor growth ([4]; bioprinted basal, only in the presence of stroma)	tumor growth ([4]; bioprinted, luminal P-1 tumor, regardless of tumor stroma)	tumor growth [5]	tumor cell apoptosis response ([6]; reconstituted with tumor stroma)	tumor cell apoptosis ([6]; without tumor stroma)
CS(=O)(=O)c1ccc(C(=O)Nc2ccc(Cl)c(-c3ccccn3)c2)c(Cl)c1 [Vismodegib]	decreases; also recorded: reduces	significant decrease								
CNC1CCC(N(Cc2cccc(-c3ccncc3)c2)C(=O)c2sc3ccccc3c2Cl)CC1 (stereo not drawn) [SAG]	increases	significant increase	significantly reduced	do not respond	do not respond	significantly inhibited	does not exhibit a significant change	inhibited		
N.N.[Cl][Pt][Cl] [cisplatin]									significantly reduced	increased
